Assay results: patent publication US20170184612A1, “USE OF LEUKOCYTES AND NOVEL BIOMARKERS IN THE DIAGNOSIS, CONFIRMATION, AND TREATMENT OF A NEUROLOGICAL DISORDER” (The Trustees of Columbia University in the City of New York, priority 2014, published 2017)

What was measured:
[1] = test system: peripheral blood mononuclear cells (PBMC), T cells; test: ELISpot assay, gamma-interferon release (SFC) after stimulation with a-synuclein epitope pools; type: cell-based, human; details: for Pool +: IFNg, Pool Stimulated, number of donors with a positive response, Donors tested 1
Protocol: (§1) Blood from age matched controls and PD patients were obtained and mononuclear cells were isolated by gradient centrifugation.
(§2) Release of the cytokines gamma-interferon, which measures activation of CD4+ and/or CD8+ T cells, and the interleukin, IL-5, which measures activation of CD4+ T cells was measured by ELISpot assay. […] After 22 hours of stimulation at 37 C, the cells were removed and release of cytokines was measured by colorimetric detection of spot-forming cells (SFC). Confirmed release of cytokine is determined by the presence of a minimum of 20 SFC per million cells.
(§3) The binding algorithms in SubAim 1 predict how well the peptides would bind to MHC if present, but not if they are present in patients. To determine this, the presence of T cell response against the candidate antigens by patient blood-derived peripheral blood mononuclear cells (PBMC) is assessed by ELISPOT assays upon stimulation with the peptides. This assay detects and quantifies cytokine release (in this case, IFNγ and IL-5) from specific activated T cells.
(§4) Data were obtained from blood samples (25 ml) from 44 PD patients and 24 age-matched controls. The experiments were conducted blindly. PBMCs from these samples were isolated and exposed to pools comprising the 122 candidate class I and class II antigens and phosphorylated S129 epitopes generated in Subaim 1. For the PBMCs responsive to the pooled peptides, the response was then deconvoluted to identify individual epitopes.
(§5) PMBC fractions are recovered by standard methods with Ficoll gradient and T cells expansion (Oseroff et al., 2010). The methods for the analysis of T cell reactions and measurement of cytokines production using the enzyme-linked immunosorbent spot (ELISPOT) assay are published in analogous experiments to discover antigens in multiple sclerosis (Lolli et al., 2013) and in hay fever allergens (Oseroff et al., 2010). T cell responses are determined by measuring IFNγ and IL-5 release by ELISPOT. Statistical analysis of differences between populations is expected to be non-parametric and analyzed with the U-Mann-Whitney test. If there were a normal distribution of response, which is a priori unlikely as some patients have no T cell response, with an SD=1, 8 patients per group would be required to provide a p>90% that the study detect a >2 fold difference at a two-sided 0.05 significance level.

[2] = test system: peripheral blood mononuclear cells (PBMC), T cells; test: ELISpot assay, IL-5 release (SFC) after stimulation with a-synuclein epitope pools; type: cell-based, human
Protocol: as §1, §2, §3, §4, §5

[3] = Patients Summary, PD patients, of donors tested (peptide)
[4] = Patients Summary, PD patients, single peptide
[5] = number of donors positive to the single peptide, second 'Pool Stimulated' section (from r296), 12 donors tested
[6] = peptide + / donors tested (peptide), second 'Pool Stimulated' section (from r296), 12 donors tested
[7] = single peptide, second 'Pool Stimulated' section (from r296), 12 donors tested
[8] = pool 'Phospho' (phosphorylated peptides)
[9] = Patients Summary, Phospho pool peptides
[10] = Patients Summary, Phospho pool peptides, 10 donors tested
[11] = peptides of pool 'Poshpho', 8 donors tested
[12] = peptides of pool 'Poshpho', 8 donors tested, number of donors positive

Substance | Pool + [1] | IFNg Peptide + (donors positive to the peptide) [1, 3] | IFNg Response Frequency [1, 4] | IFNg Total SFC [1, 4] | IFNg Peptide + [1, 5] | IFNg Response Frequency [1, 6] | IL-g Peptide + (donors positive to the peptide) [2, 3] | IL-g Response Frequency [2, 4] | IL-g Total SFC [2, 4] | IL-g Peptide + [2, 5] | IL-g Response Frequency [2, 6] | IL-g Total SFC [2, 7] | IFNg Total SFC [1, 7] | IL-g Avg SFC [2, 4] | also measured
3521.0001 (PVDPDNEAY; listed as Homo sapiens) | 0 | 0 | 0% | 0 SFC | 0 | 0% | 0 | 0% | 0 SFC | 0 | 0% | 0 SFC | – | – | –
3521.002 (AGKTKEGVL; listed as Homo sapiens) | 0 | 1 | 13% | 98 SFC | 0 | 0% | 1 | 13% | 106 SFC | 0 | 0% | 0 SFC | 0 SFC | 106 SFC | IFNg Avg SFC [1, 4]: 98 SFC
3521.0002 (PSEEGYQDY; listed as Homo sapiens) | 0 | 0 | 0% | 0 SFC | 0 | 0% | 0 | 0% | 0 SFC | 0 | 0% | 0 SFC | – | – | Pool + [1, 8]: 0; IFNg Avg SFC [1, 9]: 460 SFC; IFNg Response Frequency [1, 9]: 10%; IFNg Total SFC [1, 9]: 460 SFC; IFNg Peptide + (donors positive to the peptide) [1, 10]: 1; IFNg Response Frequency [1, 11]: 0%; IFNg Total SFC [1, 11]: 0 SFC; IFNg Peptide + [1, 12]: 0; IL-g Response Frequency [2, 9]: 0%; IL-g Total SFC [2, 9]: 0 SFC; IL-g Peptide + (donors positive to the peptide) [2, 10]: 0; IL-g Response Frequency [2, 11]: 0%; IL-g Total SFC [2, 11]: 0 SFC; IL-g Peptide + [2, 12]: 0
3521.003 (GSIAAATGFV; listed as Homo sapiens) | 0 | 0 | 0% | 0 SFC | 0 | 0% | 1 | 25% | 40 SFC | 0 | 0% | 0 SFC | 0 SFC | 40 SFC | –
3521.0003 (SIAAATGFV; listed as Homo sapiens) | 0 | 0 | 0% | 0 SFC | 1 | 50% | 0 | 0% | 0 SFC | 0 | 0% | 0 SFC | 33.3 SFC | – | IFNg Avg SFC [1, 7]: 33.3 SFC
3521.004 (DNEAYEMPSE; listed as Homo sapiens) | 0 | 0 | 0% | 0 SFC | 0 | 0% | 0 | 0% | 0 SFC | 0 | 0% | 0 SFC | – | – | Pool + [1, 8]: 0; IFNg Avg SFC [1, 9]: 364 SFC; IFNg Response Frequency [1, 9]: 20%; IFNg Total SFC [1, 9]: 727 SFC; IFNg Peptide + (donors positive to the peptide) [1, 10]: 2; IFNg Response Frequency [1, 11]: 0%; IFNg Total SFC [1, 11]: 0 SFC; IFNg Peptide + [1, 12]: 0; IL-g Avg SFC [2, 9]: 203 SFC; IL-g Response Frequency [2, 9]: 20%; IL-g Total SFC [2, 9]: 406.3 SFC; IL-g Peptide + (donors positive to the peptide) [2, 10]: 2; IL-g Response Frequency [2, 11]: 0%; IL-g Total SFC [2, 11]: 0 SFC; IL-g Peptide + [2, 12]: 0
3521.005 (APGKTKEGVL; listed as Homo sapiens) | 0 | 1 | 13% | 44 SFC | 0 | 0% | 2 | 25% | 137 SFC | 0 | 0% | 0 SFC | 0 SFC | 67.5 SFC | IFNg Avg SFC [1, 4]: 44 SFC
